The source of these data is patent publication EP1042293B9, “SUBSTITUTED PYRIDINE AND PYRIDAZINE COMPOUNDS AND THEIR PHARMACEUTICAL USE” (AMGEN INC., priority 1997, dated 1999).

For orientation: IC50 means the midpoint of a concentration-inhibition curve.

The test system of the test is TNF production by monocytes activated with bacterial lipopolysaccharide (LPS). Briefly: Lipopolysaccharide-activated monocyte TNF production assay. The conditions noted are these: Homo sapiens, 4 h, adherent PBMC-derived monocytes, LPS from E. coli, TNF in supernatant by ELISA, read-out: IC50 values in the monocyte assay (LPS induced TNF release). It is filed as cell-based. As for the experimental part:
Test compounds were evaluated in vitro for the ability to inhibit the production of TNF by monocytes activated with bacterial lipopolysaccharide (LPS). Fresh residual source leukocytes (a byproduct of plateletpheresis) were obtained from a local blood bank, and peripheral blood mononuclear cells (PBMCs) were isolated by density gradient centrifugation on Ficol-Paque Plus (Pharmacia). PBMCs were suspended at […] /ml in DMEM supplemented to contain 2% FCS, 10 mM, 0.3 mg/ml glutamate, 100 U/ml penicillin G and […] streptomycin sulfate (complete media). Cells were plated into Falcon flat bottom, 96 well culture plates (200 µl/well) and cultured overnight at 37°C and 6% CO2. Non-adherent cells were removed by washing with 200 µl/well of fresh medium. Wells containing adherent cells (~70% monocytes) were replenished with 100 µl of fresh medium.
Test compounds were dissolved in […]. Compound stock solutions were prepared to an initial concentration of […]. Stocks were diluted initially to 20 - 200 µM in complete media. Nine twofold serial dilutions of each compound were then prepared in complete medium.
One hundred microliters of each test compound dilution were added to microtiter wells containing adherent monocytes and 100 µl complete medium. Monocytes were cultured with test compounds for 60 min at which time 25 µl of complete medium containing 30 ng/ml lipopolysaccharide from E. coli K532 were added to each well. Cells were cultured an additional 4 hrs. Culture supernatants were then removed and TNF presence in the supernatants was quantified using an ELISA.
Flat bottom, 96 well Corning High Binding ELISA plates were coated overnight (4°C) with 150 µL/well of 3 µg/ml murine anti-human TNF-α MAb (R&D Systems #MAB210). […]
Standard curve data were fit to a second order polynomial and unknown TNF-α concentrations determined from their OD by solving this equation for concentration. […]
Background: ELISA stands for enzyme-linked immunosorbent assay.
As for `Cc1cccc(-c2cc(OCCCc3ccccc3)ncc2-c2ccncc2)c1` [Example 18, 2-(3-phenylpropoxy)-4-(3-methylphenyl)-5-(4-pyridyl)pyridine], the IC50 is at most 20 µM. In the case of `Cc1cccc(-c2cc(=O)n(CCCc3ccccc3)cc2-c2ccncc2)c1` [Example 19, 1-(3-phenylpropyl)-4-(3-methylphenyl)-5-(4-pyridyl)-1H-pyrid-2-one] it was at most 20 µM; in that of `Cc1cccc(-c2cc(OC[C@@H](N)Cc3ccccc3)ncc2-c2ccncc2)c1` [Example 14, 2-((S)-2-amino-3-phenylpropoxy)-4-(3-methylphenyl)-5-(4-pyridyl)pyridine], at most 20 µM.
